IC50 and AC50 data for 18 compounds are collected here from patent US20250092065A1, “2-(INDAZOL-5-YL)-6-(PIPERIDIN-4-YL)-1,7-NAPHTHYRIDINE DERIVATIVES AND RELATED COMPOUNDS AS MODULATORS FOR SPLICING NUCLEIC ACIDS AND FOR THE TREATMENT OF PROLIFERATIVE DISEASES” (REMIX THERAPEUTICS INC., priority 2022, published 2025).

What all share (type): cell-based, human
For one assay, the system named is HTT. Kind of assay: HiBiT protein abundance assay, HTT (K562 HiBiT knock-in). The note with it: HiBiT knock-in K562 cells, 24 hours, top dose 10 μM. The procedure, abridged: (§1)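 Endogenously HiBiT-tagged K562 lines were treated for 24 h at 37 °C with 10-point 3-fold dilutions (top 10 μM final, DMSO ≤0.25%). Lytic LgBiT complementation luminescence was normalized between unmodified K562 (PC) and DMSO-treated tagged cells (NC); IC50 was interpolated at 50% from a four-parameter logistic fit.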

The next assay concerns MYB. Kind of assay: HiBiT protein abundance assay, MYB (K562 HiBiT knock-in). As to conditions: HiBiT knock-in K562 cells, 24 hours, top dose 10 μM. The gist of the method: as §1
The next assay has as its system MYB mRNA. Put plainly: RT-qPCR splicing assay, MYB mRNA canonical (CJ) and alternative (AJ) junction. As to conditions: Homo sapiens; for AC50: MYB alternative junction mRNA, read-out: MYB AJ (increase in AJ mRNA, AC50). The procedure, abridged:
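Both isoforms, CJ and AJ, read by qPCR from crude lysates of treated A673 or K562 cells; 24 h, 37 °C, maximum 10 uM. Normalization: housekeeper ΔCt, then DMSO ΔΔCt.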

The test system of a further assay is Target C. Kind of assay: HiBiT protein abundance assay, Target C (K562 HiBiT knock-in). The note with it: HiBiT knock-in K562 cells, 24 hours, top dose 10 μM. The procedure, abridged:
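K562 HiBiT knock-in cells (10000/well) were treated 24 h at 37° C with a 10-point 3-fold dilution series (top 10 μM final, ≤0.25% DMSO). HiBiT luminescence was read after lytic LgBiT detection. Percent response used unmodified K562 and DMSO-treated knock-in controls, and IC50 came from a four-parameter fit at 50% of untreated.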

Where [1] appears, read: MYB canonical junction mRNA, RT-qPCR, read-out: MYB CJ (decrease in CJ mRNA levels, IC50).
Where [2] appears, read: canonical junction qPCR panel, Table 4, read-out: MYB IC50 (decrease in CJ mRNA levels).

Like-named read-outs stand apart in the source and are kept apart here.

Take `CNc1nc(-c2cc3cn(C)nc3c(C)c2O)nc2ccc(N3CCNCC3)cc12` [Compound 508, 2,7-dimethyl-5-[4-(methylamino)-6-(piperazin-1-yl)quinazolin-2-yl]indazol-6-ol]: the IC50 in the assay with HTT is more than 10000 nM; in the assay on MYB, 1000 to 10000 nM; with MYB mRNA (setting [1]), 1000 to 10000 nM; with MYB mRNA (setting [2]), 1000 to 10000 nM; in the assay with Target C, more than 10000 nM. The AC50 in the assay with MYB mRNA (RT-qPCR) is 1000 to 10000 nM.
In the case of `Cc1c(O)c(-c2nc(N(C)C)c3cc(N4CCNCC4)ccc3n2)cc2cn(C)nc12` [Compound 509, 5-[4-(dimethylamino)-6-(piperazin-1-yl)quinazolin-2-yl]-2,7-dimethylindazol-6-ol], the IC50 in the assay on HTT is more than 10000 nM; in the assay on MYB, 1000 to 10000 nM; in the assay on MYB mRNA (setting [1]) it was more than 10000 nM; in the assay with MYB mRNA (setting [2]) it was more than 10000 nM; with Target C, more than 10000 nM. In addition, the AC50 with MYB mRNA (RT-qPCR) is more than 10000 nM.
On to `CNC(=O)c1nc(-c2cc3cn(C)nc3c(C)c2O)nc2ccc(N3CCC(NC)C3)cc12` (stereo not drawn) [Compound 510, 2-(6-hydroxy-2,7-dimethylindazol-5-yl)-N-methyl-6-[3-(methylamino)pyrrolidin-1-yl]quinazoline-4-carboxamide], for which the half-maximal inhibitory concentration (IC50) in the assay on HTT was less than 100 nM; with MYB, less than 100 nM; in the assay on MYB mRNA (setting [1]), less than 100 nM; in the assay with MYB mRNA (setting [2]), less than 100 nM; with Target C, 100 to 1000 nM. Also, the AC50 in the assay on MYB mRNA (RT-qPCR) was less than 100 nM.
For `CNC(=O)c1nc(-c2cc3cn(C)nc3c(C)c2O)nc2ccc(N3C[C@@H](C)N[C@@H](C)C3)cc12` [Compound 511, 6-[(3R,5S)-3,5-dimethylpiperazin-1-yl]-2-(6-hydroxy-2,7-dimethylindazol-5-yl)-N-methylquinazoline-4-carboxamide], the IC50 with HTT is 100 to 1000 nM; in the assay with MYB, less than 100 nM; in the assay with MYB mRNA (setting [1]), less than 100 nM; in the assay on MYB mRNA (setting [2]) it was less than 100 nM; in the assay with Target C, 1000 to 10000 nM. Also, in the assay on MYB mRNA (RT-qPCR), the AC50 is less than 100 nM.
For `CC(=O)c1nc(-c2cc3cn(C)nc3c(F)c2O)nc2ccc(N3CCNCC3)cc12` [Compound 513, 1-(2-(7-fluoro-6-hydroxy-2-methyl-2H-indazol-5-yl)-6-(piperazin-1-yl)quinazolin-4-yl)ethan-1-one 2,2,2-trifluoroacetate], the IC50 was 100 to 1000 nM in the assay on HTT; less than 100 nM in the assay with MYB; less than 100 nM with MYB mRNA (setting [1]); less than 100 nM in the assay on MYB mRNA (setting [2]); 1000 to 10000 nM in the assay on Target C. The AC50 in the assay on MYB mRNA (RT-qPCR) was less than 100 nM.
As to `Cn1cc2cc(-c3nc(C#N)c4cc(N5CCNCC5)ccc4n3)c(O)c(F)c2n1` [Compound 514, 2-(7-fluoro-6-hydroxy-2-methylindazol-5-yl)-6-(piperazin-1-yl) quinazoline-4-carbonitrile; trifluoroacetic acid], the IC50 with HTT is 100 to 1000 nM; in the assay on MYB it was less than 100 nM; with MYB mRNA (setting [1]) it was less than 100 nM; in the assay with MYB mRNA (setting [2]) it was less than 100 nM; with Target C, 100 to 1000 nM. Besides, in the assay with MYB mRNA (RT-qPCR), the AC50 is less than 100 nM.
For `Cc1c(O)c(-c2ccc3cc(N4CCNCC4)cc(F)c3n2)cc2cn(C)nc12` [Compound 515, 5-[8-fluoro-6-(piperazin-1-yl)quinolin-2-yl]-2,7-dimethylindazol-6-ol], the 50% inhibitory concentration (IC50) in the assay with HTT, in the assay with MYB, in the assay on MYB mRNA (setting [1]), with MYB mRNA (setting [2]) and with Target C was less than 100 nM throughout. Further, in the assay on MYB mRNA (RT-qPCR), the AC50 was less than 100 nM.
In the case of `Cn1cc2cc(-c3ccc4cc(N5CCNCC5)cc(F)c4n3)cc(F)c2n1` [Compound 516, 8-fluoro-2-(7-fluoro-2-methylindazol-5-yl)-6-(piperazin-1-yl)quinoline], the IC50 was less than 100 nM in the assay with HTT; less than 100 nM in the assay on MYB; less than 100 nM in the assay with MYB mRNA (setting [1]); less than 100 nM in the assay on MYB mRNA (setting [2]); 100 to 1000 nM in the assay with Target C. Besides, in the assay on MYB mRNA (RT-qPCR), the AC50 was in the range of 100 to 1000 nM.
For `Cc1cn2cc(-c3ccc4cc(N5CCNCC5)cc(F)c4n3)cc(F)c2n1` [Compound 517, 8-fluoro-2-{8-fluoro-2-methylimidazo[1,2-a]pyridin-6-yl}-6-(piperazin-1-yl)quinoline], the IC50 in the assay on HTT is less than 100 nM; in the assay on MYB it was less than 100 nM; in the assay on MYB mRNA (setting [1]), less than 100 nM; in the assay with MYB mRNA (setting [2]) it was less than 100 nM; with Target C, 100 to 1000 nM. For the same compound, the AC50 with MYB mRNA (RT-qPCR) was less than 100 nM.
`Cn1cc2cc(-c3nc(C4CC4)c4cc(N5CCNCC5)ccc4n3)c(O)c(F)c2n1` [Compound 518, 5-[4-cyclopropyl-6-(piperazin-1-yl)quinazolin-2-yl]-7-fluoro-2-methylindazol-6-ol; trifluoroacetic acid]: the IC50 in the assay on HTT was 1000 to 10000 nM; in the assay on MYB it was less than 100 nM; in the assay on MYB mRNA (setting [1]), less than 100 nM; in the assay on MYB mRNA (setting [2]), less than 100 nM; with Target C it was 1000 to 10000 nM. Moreover, in the assay on MYB mRNA (RT-qPCR), the AC50 fell in the range of 100 to 1000 nM.
Regarding `Cc1c(O)c(-c2nc(-c3cncs3)c3cc(N4CCNCC4)ccc3n2)cc2cn(C)nc12` [Compound 519, 2,7-dimethyl-5-[6-(piperazin-1-yl)-4-(1,3-thiazol-5-yl)quinazolin-2-yl]indazol-6-ol], the IC50 with HTT is 1000 to 10000 nM; with MYB, 100 to 1000 nM; in the assay on MYB mRNA (setting [1]), 100 to 1000 nM; in the assay on MYB mRNA (setting [2]) it was 100 to 1000 nM; in the assay on Target C, 1000 to 10000 nM. Moreover, in the assay on MYB mRNA (RT-qPCR), the AC50 was 100 to 1000 nM.
Consider `Cc1c(O)c(-c2ncc3cc(N4CCNCC4)ccc3n2)cc2cn(C)nc12` [Compound 520, 2,7-dimethyl-5-[6-(piperazin-1-yl)quinazolin-2-yl]indazol-6-ol], for which the IC50 is 100 to 1000 nM in the assay with HTT; less than 100 nM in the assay with MYB; 100 to 1000 nM in the assay with MYB mRNA (setting [1]); 100 to 1000 nM in the assay on MYB mRNA (setting [2]); 100 to 1000 nM with Target C. In addition, the concentration at half-maximal activity (AC50) in the assay with MYB mRNA (RT-qPCR) was less than 100 nM.
In the case of `Cc1c(O)c(-c2nc(-c3nnc[nH]3)c3cc(N4CCNCC4)ccc3n2)cc2cn(C)nc12` [Compound 522, 2,7-dimethyl-5-[6-(piperazin-1-yl)-4-(4H-1,2,4-triazol-3-yl)quinazolin-2-yl]indazol-6-ol; bis(trifluoroacetic acid)], the IC50 is 1000 to 10000 nM in the assay on HTT; 100 to 1000 nM in the assay with MYB; 1000 to 10000 nM in the assay on MYB mRNA (setting [1]); 1000 to 10000 nM with MYB mRNA (setting [2]); 1000 to 10000 nM in the assay with Target C. Also, the AC50 in the assay with MYB mRNA (RT-qPCR) is 1000 to 10000 nM.
With `Cc1c(O)c(-c2nc(C(N)=O)c3cc(N4CCNCC4)ccc3n2)cc2cn(C)nc12` [Compound 523, 2-(6-hydroxy-2,7-dimethylindazol-5-yl)-6-(piperazin-1-yl) quinazoline-4-carboxamide], the IC50 was 100 to 1000 nM with HTT; less than 100 nM with MYB; less than 100 nM in the assay on MYB mRNA (setting [1]); less than 100 nM in the assay with MYB mRNA (setting [2]); 1000 to 10000 nM in the assay with Target C. The AC50 in the assay on MYB mRNA (RT-qPCR) was less than 100 nM.
For the compound `Cc1c(O)c(-c2nc(C(=O)O)c3cc(N4CCNCC4)ccc3n2)cc2cn(C)nc12` [Compound 524, 2-(6-hydroxy-2,7-dimethylindazol-5-yl)-6-(piperazin-1-yl) quinazoline-4-carboxylic acid], the IC50 in the assay with HTT, with MYB, in the assay with MYB mRNA (setting [1]), in the assay with MYB mRNA (setting [2]) and with Target C was more than 10000 nM throughout. Also, in the assay on MYB mRNA (RT-qPCR), the AC50 is more than 10000 nM.
With `Cc1c(O)c(-c2ncc3cc(N4C[C@@H](C)N[C@@H](C)C4)ccc3n2)cc2cn(C)nc12` [Compound 525, 5-{6-[(3R,5S)-3,5-dimethylpiperazin-1-yl]quinazolin-2-yl}-2,7-dimethylindazol-6-ol], the half-inhibitory concentration (IC50) with HTT is 100 to 1000 nM; in the assay with MYB, less than 100 nM; in the assay with MYB mRNA (setting [1]) it was less than 100 nM; in the assay on MYB mRNA (setting [2]) it was less than 100 nM; with Target C, 100 to 1000 nM. Further, the AC50 in the assay with MYB mRNA (RT-qPCR) is less than 100 nM.
With `Cc1c(O)c(-c2ncc3nc(N4C[C@@H](C)N[C@@H](C)C4)ccc3n2)cc2cn(C)nc12` [Compound 526, 5-{6-[(3R,5S)-3,5-dimethylpiperazin-1-yl]pyrido[3,2-d]pyrimidin-2-yl}-2,7-dimethylindazol-6-ol], the IC50 with HTT is 100 to 1000 nM; with MYB it was 100 to 1000 nM; in the assay with MYB mRNA (setting [1]), less than 100 nM; in the assay on MYB mRNA (setting [2]), less than 100 nM; in the assay with Target C, 100 to 1000 nM. In the assay with MYB mRNA (RT-qPCR), the AC50 lay in the range of 100 to 1000 nM.
As to `CNC(=O)c1nc(-c2cc3cn(C)nc3c(F)c2O)nc2ccc(N3C[C@@H](C)N[C@@H](C)C3)cc12` [Compound 527, 6-[(3R,5S)-3,5-dimethylpiperazin-1-yl]-2-(7-fluoro-6-hydroxy-2-methylindazol-5-yl)-N-methylquinazoline-4-carboxamide], the IC50 with HTT is less than 100 nM; in the assay on MYB, less than 100 nM; in the assay with MYB mRNA (setting [1]) it was less than 100 nM; in the assay on MYB mRNA (setting [2]), less than 100 nM; in the assay with Target C, 100 to 1000 nM. Besides, the AC50 in the assay with MYB mRNA (RT-qPCR) is less than 100 nM.
